8 compounds from patent US20140018416A1, “THERAPEUTIC AGENT FOR CORNEAL SENSORY NERVE DAMAGE CONTAINING SEMAPHORIN INHIBITOR AS ACTIVE INGREDIENT” (DAINIPPON SUMITOMO PHARMA CO., LTD, priority 2011, published 2014) can be followed below.

Data set [1] can be described thus: Solubility (physicochemical properties of isolated compounds). Particulars: water, hexane, methanol, DMSO.
Data set [2] can be described thus: Change over time in stability in PBS (phosphate buffer). It is filed as physicochemical. Particulars: 100 μg/ml in PBS, 37° C. As for the experimental part:
Vinaxanthone (SPF-3059-5) and SPF-3059-1 were each dissolved in PBS (Dulbecco's PBS(-)) to a concentration of 100 μg/ml. The obtained solutions were preserved at 37° C., and the amount of the agent remaining in the solution was quantified by HPLC in individual time points from initiation of the preservation until 4 weeks after initiation of the preservation, so that a change over time in the remaining percentages was examined. The same HPLC conditions as those of Example 10 were applied.

For data set [3], the target named is T1, mouse semaphorin 3A (Sema3A) (Mus musculus, UniProt O08665).
T1 sequence (O08665 21-772): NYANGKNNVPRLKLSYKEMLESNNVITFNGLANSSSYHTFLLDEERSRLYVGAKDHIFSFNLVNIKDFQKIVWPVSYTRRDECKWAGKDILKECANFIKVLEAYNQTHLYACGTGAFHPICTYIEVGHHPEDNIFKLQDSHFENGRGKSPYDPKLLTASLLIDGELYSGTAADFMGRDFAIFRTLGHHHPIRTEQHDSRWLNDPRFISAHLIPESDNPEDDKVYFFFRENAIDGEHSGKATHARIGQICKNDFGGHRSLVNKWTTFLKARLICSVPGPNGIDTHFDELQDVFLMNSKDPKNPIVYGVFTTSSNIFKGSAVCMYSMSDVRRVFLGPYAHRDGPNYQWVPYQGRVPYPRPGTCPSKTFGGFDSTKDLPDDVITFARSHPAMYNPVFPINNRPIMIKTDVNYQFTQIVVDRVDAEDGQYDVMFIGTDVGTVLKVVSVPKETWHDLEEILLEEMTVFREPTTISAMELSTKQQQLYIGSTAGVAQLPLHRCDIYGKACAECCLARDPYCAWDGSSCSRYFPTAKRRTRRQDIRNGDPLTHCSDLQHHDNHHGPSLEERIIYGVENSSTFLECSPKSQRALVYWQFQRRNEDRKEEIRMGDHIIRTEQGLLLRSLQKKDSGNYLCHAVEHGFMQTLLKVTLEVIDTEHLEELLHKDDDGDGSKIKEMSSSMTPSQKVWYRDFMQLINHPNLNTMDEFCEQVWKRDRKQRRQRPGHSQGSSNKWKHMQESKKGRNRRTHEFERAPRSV
Put plainly: Inhibitory activity on collapse activity of Sema3A (growth cone retraction, chicken embryo dorsal root ganglion). It is filed as cell-based. As for the experimental part:
A polylysine-coated 96-well plate (Sumitomo Bakelite Co., Ltd.) was further coated with laminin (20 μg/ml laminin, room temperature, 1 hour). Then, 100 μl of a medium (F12 medium containing 10% fetal bovine serum, 20 ng/ml NGF, 100 units/ml penicillin, and 100 μg/ml streptomycin) was added to each well. Thereafter, a dorsal root ganglion excised from a 7-day-old chicken embryo was inoculated into the resulting well, and the obtained mixture was then cultured under conditions consisting of 16 to 20 hours, 5% CO2 and 37° C. Thereafter, the compounds described in Example 3 above were each added in different concentrations to the resulting culture, and the obtained mixture was then cultured for 1 hour. Thereafter, 2 units/ml mouse semaphorin 3A (Sema3A) was added to the culture, and the obtained mixture was further cultured for 1 hour. One hour after initiation of the culture, glutaraldehyde was added to the culture, such that it promptly could reach a final concentration of 1%. Then, the obtained mixture was then left at a room temperature for 15 minutes to fix a tissue section. Thereafter, the percentage of the retracted growth cone was measured under a microscope. A well, to which no Sema3A had been added, was used as a control. The percentage of growth cone retraction in a negative control group (to which neither the compound nor Sema3A was added) was defined as (A)%; the percentage of growth cone retraction in a positive control group (to which the compound had not been added but Sema3A was added) was defined as (B)%; and the percentage of growth cone retraction in a test group (to which both the compound and Sema3A were added) was defined as (C)%. The concentration of each compound that held the formula C=(A+B)/2 was defined as an IC50 value.

Data set [4] can be described thus: Retention of vinaxanthone in corneal tissues after eye drops administration. Particulars: rabbit. Type of data set: in vivo. On the procedure:
Rabbits (Kbs: JW, healthy, male, body weight: 2.00 to 2.49 kg) were each administered with 50 μL of a PBS solution (0.12 M phosphate buffer (pH 7.4)) of vinaxanthone (0.5, 1.5 and 5.0 mg/mL) via eye drops administration onto the cornea of the right eye, and their eyes were then closed for 30 seconds. Thereafter, 0.5, 2, and 6 hours after completion of the administration, the rabbits were subjected to euthanasia, and the excised eyeballs were then washed with a normal saline. Thereafter, the cornea was collected from each eyeball. The cornea was homogenized, and vinaxanthone was then extracted therefrom. A change over time in the content and concentration of vinaxanthone in the corneal tissues was examined using HPLC.

The subject of data set [5] is corneal sensory nerve in corneal graft. The data set is described as follows: Mouse keratoplasty model: regeneration of nerve fibers in corneal graft, corneal sensitivity, corneal vascularization. The settings on record: vs control group. Type of data set: in vivo. From the text: In this experiment, there were used genetically modified mice (P0-Cre/Floxed-EGFP mouse), in which corneal parenchymal cells, corneal endothelial cells, and nerves expressed a type of fluorescent protein, Green Fluorescent Protein (GFP), in the cornea. Using these mice, corneal sensory nerve fibers traveling in the cornea can easily be observed by removing a layer of corneal endothelial cells.
The cornea derived from a syngeneic wild-type mouse was transplanted into each of the above-mentioned mice. Thereafter, 50 ul of vinaxanthone (which had been dissolved in Rinderon (1 mg/ml betamethasone sodium phosphate injection solution) to a concentration of 0.1 mg/mL) was administered to the mice via subconjunctival injection immediately after completion of the operation and then, every two days in a total of 11 times. Only a solvent containing no drugs was administered in the same amount as described above to a control group. The removal of the suture was conducted one week after completion of the operation. Three weeks after completion of the operation, corneal sensitivity was evaluated, the mice were then subjected to euthanasia, and eyeballs were then excised. A comparison was made regarding the regeneration of nerve fibers in the corneal graft. Corneal sensitivity was evaluated by measuring corneal sensitivity in the center of the corneal graft every week after completion of the operation, using a Cochet-Bonnet corneal esthesiometer. […]
Thereafter, a total of the lengths thereof were measured, and a comparison was then made between the vinaxanthone administration group and the control group.

Molecules are shown by their SMILES. Like-named read-outs stand apart in the source and are kept apart here.

For `CC(=O)c1cc2c(=O)c3c(C(=O)O)c(O)c(O)cc3oc2c(C(C)=O)c1-c1coc2cc(O)c(O)cc2c1=O` [SPF-3059-24], in data set [1], the Solubility entry was “Insoluble in water and hexane, soluble in methanol and DMSO”.
As for `CC(=O)c1c(C)c(C(=O)C2COc3cc(O)c(O)c(C(=O)O)c3C2=O)cc2c(=O)c3c(C(=O)O)c(O)c(O)cc3oc12` (centres unmarked) [SPF-3059-1, reference compound], the “Time until decomposed in an almost total amount in PBS” value in data set [2] is listed as “approximately 1 week”.
As for `CC(=O)c1cc2c(=O)c3c(C(=O)O)c(O)c(O)cc3oc2c(C(C)=O)c1-c1coc2cc(O)cc(C(=O)O)c2c1=O` [SPF-3059-12], in data set [1], the Solubility result was “Insoluble in water and hexane, soluble in methanol and DMSO”.
Turning to `CC(=O)c1cc2c(=O)c3cc(O)c(O)cc3oc2c(C(C)=O)c1-c1coc2cc(O)c(O)cc2c1=O` [SPF-3059-26], the Solubility result in data set [1] was “Insoluble in water and hexane, soluble in methanol and DMSO”.
As a reminder, the IC50 is the midpoint of a concentration-inhibition curve. With `CC(=O)c1cc2c(=O)c3cc(O)c(O)cc3oc2c(C(C)=O)c1-c1coc2cc(O)c(O)c(C(=O)O)c2c1=O` [SPF-3059-2], the IC50 in data set [3] (2 units/ml mouse Sema3A, 7-day-old chicken embryo dorsal root ganglion, read-out: IC50 (inhibition of Sema3A-induced growth cone retraction)) was < 188 nM.
On to `CC(=O)c1cc2c(=O)c3c(C(=O)O)c(O)c(O)cc3oc2c(C(C)=O)c1-c1coc2cc(O)c(O)c(C(=O)O)c2c1=O` [SPF-3059-5, vinaxanthone], for which the IC50 in data set [3] (as quoted in Example 2, converted from ng/mL, read-out: IC50 value obtained by the in vitro experiment (inhibitory activity on the collapse activity of Sema3A in Example 4) (converted)) is 130 nM; in data set [3] (as quoted in Example 2, read-out: IC50 value obtained by the in vitro experiment (inhibitory activity on the collapse activity of Sema3A in Example 4) (converted)), 130 nM. Also, the “Time for which the compound was stable in PBS” value in data set [2] is on record as ≥ 4 weeks. Also, the “Remaining percentage in PBS” value in data set [2] (until 4 weeks after initiation of the preservation, HPLC) is ≥ 96%. For the same compound, the concentration at 6 h in data set [4] (male, Kbs: JW, cornea, topical, 5 mg/mL (50 μL eye drop), 50 μL eye drops of 5.0 mg/mL PBS solution, 6 hours after administration, read-out: Concentration of vinaxanthone retained in the cornea) was > 75 ng/mL. In data set [4] (eye drop of 0.5 mg/mL solution), the “Time for which the concentration in the cornea considered necessary for the expression of drug effects was retained” value was found to be 0.5 h. Besides, in data set [4] (eye drops 0.5, 1.5 and 5.0 mg/mL), the “Transfer into the corneal tissues” value is given as “transferred into the corneal tissues in an applied concentration/dose dependent manner”. Besides, the “Regeneration of nerve fibers in the corneal graft (total length of regenerated fibers)” value in data set [5] (50 ul of 0.1 mg/mL subconjunctival injection, every two days, 11 times, three weeks after operation, p<0.01) is reported as “promoted”. Further, in data set [5] (three weeks after completion of the operation, p<0.01), the “Corneal sensitivity in the center of the corneal graft (Cochet-Bonnet corneal esthesiometer, blink reflection)” value is on record as “improved”. For the same compound, the “Vascularization into the corneal graft (total length of CD31-positive newly formed blood vessels)” value in data set [5] (three weeks after operation, no significant difference) is recorded as “not promoted”.
On to `CC(=O)c1cc2c(=O)c3c(C(=O)O)cc(O)cc3oc2c(C(C)=O)c1-c1coc2cc(O)c(O)c(C(=O)O)c2c1=O` [SPF-3059-4], for which, in data set [1], the Solubility result was “Insoluble in water and hexane, soluble in methanol and DMSO”.
Same read-out and setting: next, `CC(=O)c1cc2c(=O)c3c(C(=O)O)cc(O)cc3oc2c(C(C)=O)c1-c1coc2cc(O)c(O)cc2c1=O` [SPF-3059-25]: “Insoluble in water and hexane, soluble in methanol and DMSO”.
